{"source": "patent US10485814B2", "about": "“Nicotinamide riboside analogs and pharmaceutical compositions and uses thereof” (GlaxoSmithKline Intellectual Property (No. 2) Limited, priority 2014, dated 2019)", "key": {"HaCaT cells": {"system": "HaCaT cells", "assay": "H2O2-induced reactive oxygen species (ROS) in HaCaT cells (CellROX deep red)", "format": "cell-based, human", "procedure": "HaCaT cells were grown as described in example 23 and were seeded in 96-well plates (Nunc™ black with optical bottom, Thermo Fisher Scientific, Inc., Waltham, Mass.) with a density at 2×10^4 cells per well and 100 μl medium in each well, and grown overnight before treatments. Stock solutions of NRH and other test compounds were prepared and diluted to 2× of final treatment concentrations in DMEM medium in 96-well storage plate as indicated in the FIG. 11. HaCaT Cells were treated in triplicates by adding 100 μl of diluted solutions of test compounds (2×) to each well containing 100 μl medium already. Cells were incubated in the presence of test compounds for 3 hrs. At the end of 3 hr incubation, cells were washed once with 200 μl DPBS with Ca^++ and Mg^++ (Life Technologies) and then fed with 100 μl DMEM medium each well containing H2O2 at 250 μM (as a ROS (reactive oxygen species) inducer, Sigma). After 30 min incubation, cells were washed once with 200 μl DPBS with Ca^++ and Mg^++ and CellROX deep red reagent (2.5 mM stock solution, Life Technologies) was added to the medium to a final concentration of 5 μM. After 1 hr incubation at 37° C., 5% CO2, Cells were washed for 3 times with DPBS, fluorescence signal was read at Ex. 640 nm and Em. 665 nm in Biotek Synergy H4 microplate reader (BioTek, Winooski, Vt.). Untreated cells were served as controls (normalized to 1). All the treated samples were normalized to the untreated control."}, "[1]": {"assay": "Plasma hydrolysis of nicotinamide riboside analogs to NR (incubation with rat plasma, LC/MS/MS)", "format": "in vitro ADME", "conditions": "10 mM, incubated 30 min at 37° C.", "procedure": "Compounds were diluted with rat plasma to a concentration of 10 millimolar (mM). Samples were incubated for 30 min at 37° C., taking 50 microL aliquots for analysis at 0 and 30 min. The aliquots were loaded onto a deep 96 well plate, then 350 microL of 0.1% (v:v) formic acid in acetonitrile was added to each well. The plate was covered and sealed to prevent evaporation, then it was placed on an orbital plate shaker set to 800-900 rps for 5-10 minutes. Next, the plate was centrifuged at around 3000 rpm for 5 min to provide a clear supernatant. For LC/MS/MS analysis, 200 microL of supernatant from each well was transferred onto a clean plate, which was subsequently capped and placed into an autosampler.\n(§1) LCMS Conditions. For each well, a 10 microL sample was injected via autosampler onto a Chromolithe Performance, RP-18e (100×4.6 mm) column, and eluted with a binary gradient. Solvent A=0.1% formic acid, 0.1% N,N-dibutyl-N-methylamine (DBME) in 2 mM aqueous ammonium acetate (1:1:1000 v:v:v). Solvent B=0.1% formic acid in acetonitrile (1:1000 v:v). The solvent gradient was as follows: 0-0.22 min, 95:5 A:B; […], 95:5 A:B to 30:70 A:B (linear gradient); 5.05-6.05 min, 30:70 A:B; 6.05-6.60 min, 30:70 A:B to 95:5 A:B (linear gradient); 6.60-7.15 min, 95:5 A:B; stop elution at 7.15 min. Nicotinamide riboside eluted at approximately 1.7 min. A triple-quadrupole mass spectrometer was employed for peak identification. The identity of the analyte was confirmed by MS observation of a Q1 peak at m/z=255 (M)^+, and a Q3 peak at m/z=123.1 (M-C5H8O4)^+.\nThe results are shown in FIG. 3, with the release of free nicotinamide riboside measured using by HPLC-MS at 0, 30, and 60 minute time points (columns 5, 6, and 7 of table shown in FIG. 3). For each of NR esters in Table 3, except nicotinamide riboside tribenzoate, nicotinamide riboside was detected at the 30 minute time point."}, "[2]": {"assay": "Gravimetric Vapor Sorption (GVS)", "format": "physicochemical", "conditions": "90% RH, 25° C.", "procedure": "Gravimetric Vapor Sorption (GVS): Samples were analyzed using a VTI corporation (now part of TA Instruments) SGA-100 with Cahn microbalance equipped with quartz sample and reference pans. Samples were dried in the SGA-100 under dry nitrogen for 5 hours at 25° C. followed by a moisture absorption step ramp from 5% relative humidity (RH) to 95% or 90% RH followed by a desorption step ramp back to 5% or 10% RH (all steps at 25° C.). The samples were held at each % RH step for 4 hours."}, "C57BL/6 DIO mice": {"system": "C57BL/6 DIO mice", "assay": "NRH triacetate efficacy in DIO (Diet-Induced Obesity) mice", "format": "in vivo", "procedure": "C57BL/6 DIO mice and lean controls were purchased from Taconic (Hudson, N.Y.). All mice were fed Purina 5001 chow ad libitum from weaning until 6 weeks of age, then DIO mice were fed a diet containing 60% fat, ad libitum. When the mice were 18 weeks old, dosing was begun. Mice were segregated into groups of 8, with group A receiving vehicle (1:1 (v:v) PEG400: water), group B receiving 100 mg/kg nicotinamide riboside hydride triacetate as a solution in vehicle, group C receiving 500 mg/kg nicotinamide riboside hydride triacetate as a solution in vehicle, and group D (chow-fed lean control mice) receiving vehicle. The mice were dosed once per day via oral gavage for six weeks. After three weeks of dosing, body weights, post-prandial blood glucose, and post-prandial blood insulin levels were measured using commercially available kits. After four weeks of dosing, fasted blood glucose and fasted blood insulin levels were measured. Nicotinamide riboside and NAD levels were measured after four weeks of dosing, using the same extraction and LCMS protocol as described in Example 21 with NAD giving an LC retention time=2.5 min, MS Q1 peak, m/z=664(M+H)+, Q3 peak, m/z=428 (M-Cl1H13N2O4). Statistical analysis was performed using one-way ANOVA, and Dunnett's post test.\nChow-fed mice were used as non-diabetic controls."}, "[3]": {"assay": "Plasma/blood nicotinamide riboside levels in orally dosed mice (LCMS)", "format": "in vivo", "conditions": "oral gavage 500 mg/kg in PBS; for plasma nicotinamide riboside levels: both 2 h and 6 h post-dose", "procedure": "Compounds were suspended in phospho-buffered saline (PBS) solution at 125 mg/mL. Eight mice were dosed via oral gavage with study compound at 500 mg/kg, (20 mg compound in 160 microL of PBS for a 40 g mouse). Four mice were euthanized via CO2 asphyxiation at 2 h post-dose, then the remaining four were euthanized at 6 h post-dose, and blood was collected immediately following euthanasia via cardiac puncture, orbital bleed, or tail vein nick. Approximately 600 microL of blood was collected from each mouse. The blood samples were diluted with 5 volumes of 70% (1% sulfosalicylic acid/1 microM DTE/10 microM CD-38 inhibitor)/30% (37% 10 mM aqueous ammonium bicarbonate/63% acetonitrile). The mixture was vortexed, then centrifuged at 3000 rpm for 10 min at 4° C. to give a transparent supernatant. A 10 microL portion of the supernatant was analyzed by LCMS, using the conditions below.\nas §1, with “injected” for “injected via autosampler”, “A:B;” for “A:B; stop”, “elution was stopped” for “elution”, “(M)+,” for “(M)^+,”\nIn the bar graph in FIG. 5, compounds are shown on the x-axis, and comparative LCMS signal is shown on the y-axis; with each compound dosed in mice at 500 mg study compound per 1000 g mouse as a solution or suspension in phospho-buffered saline solution (PBS) (A=blank control (PBS), B=nicotinic acid riboside hydride ethyl ester triacetate, C=Nicotinamide riboside hydride triisobutyrate, D=Nicotinamide riboside hydride tri-n-butyrate, E=Nicotinamide riboside hydride tripropionate, F=nicotinamide riboside hydride tribenzoate). As shown, samples were taken 2 hours and 6 hours post dose. Also as shown, samples were kept cold (4° C.) or at room temperature (approximately 23° C.) before analysis."}, "[4]": {"conditions": "100 and 500 mg/kg once per day orally, after four weeks of dosing"}, "[5]": {"conditions": "oral gavage once per day 100 or 500 mg/kg, post-prandial, after three weeks of dosing"}}, "note": "“Also recorded” adds a separate entry of the source."}
{"smiles": "OO", "note": "[Example H2O2]", "values": [{"measurement": "level of ROS", "setting": "HaCaT cells; 250 μM H2O2, 30 min, normalized to untreated control", "result": "~6", "unit": "fold"}]}
{"smiles": "OCCc1ccc(O)c(O)c1", "note": "[Hydroxyterosol]", "values": [{"measurement": "H2O2-induced ROS", "setting": "HaCaT cells; 3 hr pre-incubation then 250 μM H2O2, Hydroxyterosol 0.005%, niacinamide 4.5 mM, NRH several concentrations", "result": "reduced H2O2-induced ROS"}]}
{"smiles": "CC(=O)OC[C@H]1O[C@@H](N2C=CCC(C(N)=O)=C2)[C@H](OC(C)=O)[C@@H]1OC(C)=O", "note": "[NRH triacetate, (2R,3R,4R,5R)-2-(acetoxymethyl)-5-(3-carbamoylpyridin-1(4H)-yl)tetrahydrofuran-3,4-diyl diacetate]", "values": [{"measurement": "conversion to free nicotinamide riboside", "setting": "[1]", "result": "converted to free nicotinamide riboside to a significant degree"}, {"measurement": "GVS weight gain from the dried state", "setting": "[2]", "result": "greater than 12%"}, {"measurement": "blood NAD levels", "setting": "C57BL/6 DIO mice; [4]", "result": "rose in a dose-dependent manner; also recorded: rise in a NRH-triacetate dose-dependent manner"}, {"measurement": "blood nicotinamide riboside levels", "setting": "C57BL/6 DIO mice; [4]", "result": "rose in a dose-dependent manner; also recorded: rise in a NRH-triacetate dose-dependent manner"}, {"measurement": "blood glucose levels", "setting": "C57BL/6 DIO mice; [5]", "result": "reduced"}, {"measurement": "blood insulin levels", "setting": "C57BL/6 DIO mice; [5]", "result": "reduced"}]}
{"smiles": "NC(=O)C1=CN([C@@H]2O[C@H](COC(=O)c3ccccc3)[C@@H](OC(=O)c3ccccc3)[C@H]2OC(=O)c2ccccc2)C=CC1", "note": "[NRH tribenzoate, (2R,3R,4R,5R)-2-((benzoyloxy)methyl)-5-(3-carbamoylpyridin-1(4H)-yl)tetrahydrofuran-3,4-diyl dibenzoate]", "values": [{"measurement": "conversion to free nicotinamide riboside", "setting": "[1]", "result": "not significantly converted to free nicotinamide riboside"}, {"measurement": "nicotinamide riboside level", "setting": "[3]; 2 h post-dose", "result": "only a very modest increase"}]}
{"smiles": "CCCC(=O)OC[C@H]1O[C@@H](N2C=CCC(C(N)=O)=C2)[C@H](OC(=O)CCC)[C@@H]1OC(=O)CCC", "note": "[NRH tributyrate, (2R,3R,4R,5R)-2-((butyryloxy)methyl)-5-(3-carbamoylpyridin-1(4H)-yl)tetrahydrofuran-3,4-diyl dibutyrate]", "values": [{"measurement": "conversion to free nicotinamide riboside", "setting": "[1]", "result": "converted to free nicotinamide riboside to a significant degree"}, {"measurement": "plasma nicotinamide riboside levels", "setting": "[3]", "result": "raised plasma nicotinamide riboside levels substantially"}]}
{"smiles": "CC(C)C(=O)OC[C@H]1O[C@@H](N2C=CCC(C(N)=O)=C2)[C@H](OC(=O)C(C)C)[C@@H]1OC(=O)C(C)C", "note": "[NRH triisobutyrate, (2R,3R,4R,5R)-2-(3-carbamoylpyridin-1(4H)-yl)-5-((isobutyryloxy)methyl)-tetrahydrofuran-3,4-diyl bis(2-methylpropanoate)]", "values": [{"measurement": "conversion to free nicotinamide riboside", "setting": "[1]", "result": "converted to free nicotinamide riboside to a significant degree"}, {"measurement": "plasma nicotinamide riboside levels", "setting": "[3]", "result": "raised plasma nicotinamide riboside levels substantially"}]}
{"smiles": "CCC(=O)OC[C@H]1O[C@@H](N2C=CCC(C(N)=O)=C2)[C@H](OC(=O)CC)[C@@H]1OC(=O)CC", "note": "[NRH tripropionate, (2R,3R,4R,5R)-2-(3-carbamoylpyridin-1(4H)-yl)-5 ((propionyloxy)methyl) tetrahydrofuran-3,4-diyl dipropionate]", "values": [{"measurement": "conversion to free nicotinamide riboside", "setting": "[1]", "result": "converted to free nicotinamide riboside to a significant degree"}, {"measurement": "plasma nicotinamide riboside levels", "setting": "[3]", "result": "raised plasma nicotinamide riboside levels substantially"}]}
